# Data as given in US20260318831A1 (University of Cincinnati, priority 2023, published 2026).
# Tested on: HeLa cells
# Assay: Photobleaching comparison of LTR and PyQPMe
# Assay type: cell-based
# Settings: 100% laser power, after 40 s of scans; % of original value
# Text: FIGS. 4A-4G depict the characterization of imaging properties of PyQPMe-stained endolysosomes. FIG. 4A. Confocal image of PyQPMe-stained endolysosomes and fluorescence intensity profile (FIG. 4B) of the write line in FIG. 4A. FIG. 4C. Confocal image of PyQPMe-stained late endosomes/lysosomes and fluorescence intensity profile (FIG. 4D) of the write line in FIG. 4C. FIG. 4E. Confocal images of HeLa cells labeled with LTR and PyQPMe and 3D fluorescence intensity plots of rectangles of integration. FIG. 4F. Continuous imaging of HeLa cells labeled with LTR or PyQPMe at 100% laser intensity for photobleaching, and each scan time was 10 s, images were captured under a red channel. FIG. 4G. Normalized fluorescence intensity of LTR and PyQPMe in FIG. 4F.
# Resistance to photobleaching is a crucial property of probes that determines whether they can be used for long-term fluorescence tracking. To characterize this property, a photobleaching comparison study between LTR and PyQPMe was done in HeLa cells (FIG. 4F).
# Leica Stellaris 8 Confocal imaging. High-resolution images were acquired on a commercial Leica Stellaris 8 Confocal Microscope under LIGHTNING mode. Laser powers were set at 10% intensity for 405 nm and 640 nm channels. […] High-resolution images were captured from the randomly selected field of view and analyzed with Leica LAS X and ImageJ software. […] All PCC values were analyzed in the CellProfiler.
smiles,measurement,value
"CN1CCN(c2ccc(/C=C/c3ccc4cc(-c5ccncc5)ccc4[n+]3C)cc2)CC1 [PyQPMe, (E)-1-methyl-2-(4-(4-methylpiperazin-1-yl)styryl)-6-(pyridin-4-yl)quinolin-1-ium]",fluorescence signal remaining after photobleaching,22%
